Source: ChEMBL document CHEMBL1201862, “PubChem BioAssay data set” (2004)
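These data come from cells grown in 96-well plates and exposed to compound for 48 hours at five concentrations. The concentration for 50% growth inhibition is given as GI50.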 Calls of active or inactive are those of the source. Cut-off read from the data, not from the text of the source: active = GI50 up to about 1.1 µM and inactive = higher.

Experiments:
Test in all cases: DTP human tumour cell line panel, 48 h
786-0 = tested on: 786-0
A498 = tested on: A498
A549 = tested on: A549
ACHN = tested on: ACHN
BT-549 = tested on: BT-549
CAKI-1 = tested on: CAKI-1
CCRF-CEM = tested on: CCRF-CEM
COLO 205 = tested on: COLO 205
DU-145 = tested on: DU-145
EKVX = tested on: EKVX
HCC 2998 = tested on: HCC 2998
HCT-116 = tested on: HCT-116
HCT-15 = tested on: HCT-15
HL-60 = tested on: HL-60
HOP-62 = tested on: HOP-62
HOP-92 = tested on: HOP-92
HT-29 = tested on: HT-29
Hs-578T = tested on: Hs-578T
IGROV-1 = tested on: IGROV-1
K562 = tested on: K562
KM12 = tested on: KM12
LOX IMVI = tested on: LOX IMVI
M14 = tested on: M14
MCF7 = tested on: MCF7
MDA-MB-231 = tested on: MDA-MB-231
MDA-MB-435 = tested on: MDA-MB-435
MDA-N = tested on: MDA-N
MOLT-4 = tested on: MOLT-4
Malme-3M = tested on: Malme-3M
NCI-H226 = tested on: NCI-H226
NCI-H23 = tested on: NCI-H23
NCI-H460 = tested on: NCI-H460
NCI-H522 = tested on: NCI-H522
NCI/ADR-RES = tested on: NCI/ADR-RES
OVCAR-3 = tested on: OVCAR-3
OVCAR-5 = tested on: OVCAR-5
OVCAR-8 = tested on: OVCAR-8
PC-3 = tested on: PC-3
RPMI-8226 = tested on: RPMI-8226
RXF 393 = tested on: RXF 393
SF-268 = tested on: SF-268
SF-295 = tested on: SF-295
SF-539 = tested on: SF-539
SK-MEL-28 = tested on: SK-MEL-28
SK-MEL-5 = tested on: SK-MEL-5
SK-OV-3 = tested on: SK-OV-3
SNB-19 = tested on: SNB-19
SNB-75 = tested on: SNB-75
SR = tested on: SR
SW-620 = tested on: SW-620
TK-10 = tested on: TK-10
U-251 = tested on: U-251
UACC-257 = tested on: UACC-257
UACC-62 = tested on: UACC-62
UO-31 = tested on: UO-31

Q: Which results are given for `O=P(O)(O)C(NCC(O)CN1CCOCC1)P(=O)(O)O` (stereo not given)?
A: GI50 (786-0): > 100 µM (inactive); GI50 (A498): > 100 µM (inactive); GI50 (A549): > 100 µM (inactive); GI50 (ACHN): > 100 µM (inactive); GI50 (BT-549): > 100 µM (inactive); GI50 (CAKI-1): > 100 µM (inactive); GI50 (CCRF-CEM): > 100 µM (inactive); GI50 (COLO 205): > 100 µM (inactive); GI50 (DU-145): > 100 µM (inactive); GI50 (EKVX): > 100 µM (inactive); GI50 (HCC 2998): > 100 µM (inactive); GI50 (HCT-116): > 100 µM (inactive); GI50 (HCT-15): > 100 µM; GI50 (HL-60): > 100 µM (inactive); GI50 (HOP-62): > 100 µM (inactive); GI50 (HOP-92): > 100 µM (inactive); GI50 (HT-29): > 100 µM (inactive); GI50 (Hs-578T): 10.2 µM (inactive); GI50 (IGROV-1): > 100 µM (inactive); GI50 (K562): > 100 µM (inactive); GI50 (KM12): > 100 µM (inactive); GI50 (LOX IMVI): > 100 µM (inactive); GI50 (M14): > 100 µM (inactive); GI50 (MCF7): > 100 µM (inactive); GI50 (MDA-MB-231): > 100 µM (inactive); GI50 (MDA-MB-435): > 100 µM (inactive); GI50 (MDA-N): > 100 µM (inactive); GI50 (MOLT-4): > 100 µM (inactive); GI50 (Malme-3M): > 100 µM (inactive); GI50 (NCI-H226): > 100 µM (inactive); GI50 (NCI-H23): > 100 µM (inactive); GI50 (NCI-H460): > 100 µM (inactive); GI50 (NCI-H522): > 100 µM (inactive); GI50 (NCI/ADR-RES): > 100 µM (inactive); GI50 (OVCAR-3): > 100 µM (inactive); GI50 (OVCAR-5): > 100 µM (inactive); GI50 (OVCAR-8): > 100 µM (inactive); GI50 (PC-3): > 100 µM (inactive); GI50 (RPMI-8226): > 100 µM (inactive); GI50 (RXF 393): > 100 µM (inactive); GI50 (SF-268): > 100 µM (inactive); GI50 (SF-295): > 100 µM (inactive); GI50 (SF-539): > 100 µM (inactive); GI50 (SK-MEL-28): > 100 µM (inactive); GI50 (SK-MEL-5): > 100 µM (inactive); GI50 (SK-OV-3): > 100 µM (inactive); GI50 (SNB-19): > 100 µM (inactive); GI50 (SNB-75): > 100 µM (inactive); GI50 (SR): > 100 µM (inactive); GI50 (SW-620): > 100 µM (inactive); GI50 (TK-10): > 100 µM (inactive); GI50 (U-251): > 100 µM (inactive); GI50 (UACC-257): > 100 µM (inactive); GI50 (UACC-62): > 100 µM (inactive); GI50 (UO-31): > 100 µM (inactive)
